The target of test [1] is Neuronal acetylcholine receptor subunit alpha-7 (Rattus norvegicus) (UniProt Q05941). Briefly: Antagonist activity at rat alpha-7 nicotinic acetylcholine receptor expressed in Xenopus oocytes assessed as inhibition of nicotine-induced current amplitudes at IC50 for acetylcholine-induced currents preincubated for 10 mins followed by nicotine induction by two-electrode voltage-clamp electrophysiology assay relative to control. The format is cell-based. Background: Two-electrode voltage clamp holds a large cell at a set potential and records current.

Test [2] has the same target. Briefly: Agonist activity at rat alpha-7 nicotinic acetylcholine receptor expressed in Xenopus oocytes assessed as ratio of maximum response to compound to that induced by 1 mM acetylcholine at 1 mM treated for 3 to 4 secs followed by compound washout for 4 mins by two-electrode voltage-clamp electrophysiology assay. The format is cell-based.
Test [3] deals with T1, Neuronal acetylcholine receptor subunit alpha-7 (Rattus norvegicus, UniProt Q05941). Briefly: Antagonist activity at rat alpha-7 nicotinic acetylcholine receptor expressed in Xenopus oocytes assessed as inhibition of acetylcholine-induced currents preincubated for 10 mins followed by nicotine induction by two-electrode voltage-clamp electrophysiology assay. The format is cell-based.

The target in test [4] is Neuronal acetylcholine receptor subunit alpha-7 (Rattus norvegicus) (UniProt Q05941).
Test [5] addresses T1, Neuronal acetylcholine receptor subunit alpha-7.

SMILES strings stand for the structures. Calls of active or inactive are those of the source. The calls are words filed in the database; no cut-off is given here.

Neuronal acetylcholine receptor subunit alpha-7 (Rattus norvegicus), sequence (Q05941 whole entry): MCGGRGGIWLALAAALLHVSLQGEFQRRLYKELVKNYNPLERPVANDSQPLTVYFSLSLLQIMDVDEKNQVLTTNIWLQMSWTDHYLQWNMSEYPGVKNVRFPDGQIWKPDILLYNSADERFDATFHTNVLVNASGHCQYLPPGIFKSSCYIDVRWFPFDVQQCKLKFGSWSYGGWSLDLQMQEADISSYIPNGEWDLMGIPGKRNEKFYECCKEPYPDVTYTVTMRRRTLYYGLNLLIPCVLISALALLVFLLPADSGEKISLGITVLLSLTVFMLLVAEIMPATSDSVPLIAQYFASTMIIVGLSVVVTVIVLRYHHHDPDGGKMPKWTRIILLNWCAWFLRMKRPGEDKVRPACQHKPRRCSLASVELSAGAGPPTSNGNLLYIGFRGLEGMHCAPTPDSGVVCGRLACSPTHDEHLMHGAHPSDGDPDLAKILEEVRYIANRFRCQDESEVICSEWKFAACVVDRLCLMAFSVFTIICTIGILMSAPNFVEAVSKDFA
T1 sequence (Q05941 whole entry): as above

The term inhibition denotes the relative decrease from the control value, in per cent. The IC50 is the concentration that gives 50% inhibition. Take `O=C(N[C@H]1C[N+]2(CCl)CCC1CC2)c1ccccc1F`: in test [1], the inhibition was determined as 65.7%. For the same compound, the Ratio in test [2] came to 0.021. Moreover, the IC50 in test [3] stood at 28.4 µM.

On to `O=C(N[C@@H]1C[N+]2(CCl)CCC1CC2)c1ccccc1F`, for which the inhibition in test [1] turned out to be 33.2%. Also, the pEC50 entry in test [4] was “inactive”. In addition, the IC50 in test [3] is 39.3 µM.

Usually EC50 stands for the concentration that produces a half-maximal response. Take `O=C(NC1CN2CCC1CC2)c1ccccc1F` (stereo not drawn): in test [1], the inhibition stood at 26.5%. Further, the Ratio in test [2] is 0.19. In addition, a half-maximal effect in test [5] (EC50) was put at 56.5 µM. Also, the IC50 in test [3] came out at 8.07 µM.

For the compound `COc1cc(N)c(Cl)cc1C(=O)NC1CN2CCC1CC2` (stereo not drawn) [ZACOPRIDE], the inhibition in test [1] was 4.37%. The Ratio in test [2] was 0.038. Also, the IC50 in test [3] amounted to 7.04 µM.

The values are drawn from ChEMBL document CHEMBL3600385 (Bioorg Med Chem Lett, 2015).
